A short description of series [1]: Cytotoxicity against human Raji cells assessed as cell viability at 1000 molar ratio. Format: cell-based. As to conditions: read-out: INH.
Series [2] in a line: Inhibition of TPA-induced EBV early antigen activation in human Raji cells relative to TPA. Type of series: cell-based, human gammaherpesvirus 4.
The test system of series [3] is Raji. In words: Inhibition of TPA-induced EBV early antigen activation in human Raji cells at 100 molar relative to TPA; values are per cent of control. As to conditions: human gammaherpesvirus 4.
In series [4] the test system is Raji. Description: Inhibition of TPA-induced EBV early antigen activation in human Raji cells at 500 molar relative to TPA; values are per cent of control. As to conditions: human gammaherpesvirus 4.
The test system of series [5] is Raji. In words: Inhibition of TPA-induced EBV early antigen activation in human Raji cells at 1000 molar relative to TPA; values are per cent of control. The conditions noted are these: human gammaherpesvirus 4.
Series [6] concerns Raji. In words: Inhibition of TPA-induced EBV early antigen activation in human Raji cells at 10 molar ratio relative to TPA; values are per cent of control. The conditions noted are these: human gammaherpesvirus 4.
For series [7], the system named is HL-60. Description: Cytotoxicity against human HL60 cells after 48 hrs by MTT assay. Format: functional, cell-based. The conditions noted are these: HL-60, 48 h. (In general: Formazan colour is commonly taken as a measure of viable cells.)
The nature of series [8]: Cytotoxicity against human CRL1579 cells after 48 hrs by MTT assay. Type of series: functional, cell-based.
Series [9] is filed under the species Mus musculus. Description: Inhibition of DMBA-induced/TPA-promoted carcinogenesis in ICR mouse assessed as reduction of skin papillomas measured after 20 weeks relative to TPA. Format: functional.
For series [10], the species on record is Mus musculus. In words: Inhibition of DMBA-induced/TPA-promoted carcinogenesis in ICR mouse assessed as reduction of skin papillomas measured after 11 weeks relative to TPA. Type of series: functional.

This is an account of results in ChEMBL document CHEMBL1154271, “Anti-tumor-promoting effects of 25-methoxyporicoic acid A and other triterpene acids from Poria cocos” (J Nat Prod, 2009).

Regarding `C=C(C)[C@@H]1CCC2=C(CC[C@]3(C)[C@@H]([C@@H](CCC=C(C)C)C(=O)O)[C@H](O)C[C@@]23C)[C@@]1(C)CCC(=O)OC` [PORICOIC ACID GM], the viability at 1000 molar ratio in [1] worked out at 70%. Moreover, the IC50 in [2] is on record as 216 molar ratio. The level, % of control in [3] is 60.1%; in series [4], 19.9%; in [5], 0%; in [6], 86.4%.
As for `C=C(C)[C@@H]1CCC2=C(CC[C@]3(C)[C@@H]([C@@H](CCC=C(C)C)C(=O)O)[C@H](O)C[C@@]23C)[C@@]1(C)CCC(=O)O` [PORICOIC ACID G], the results for the IC50 in series [7] and in series [8] were 32.6 µM and more than 100 µM, respectively.
For `C=C(CC[C@@H](C(=O)O)[C@H]1[C@H](O)C[C@@]2(C)[C@]34C=C[C@@]5(OO3)C(C)(C)[C@@H](O)CC[C@]5(C)C4=CC[C@]12C)C(C)C` the same measures were more than 100 µM and more than 100 µM.
With `C=C(CC[C@@H](C(=O)O)[C@H]1[C@H](O)C[C@@]2(C)C3=C(CC[C@]12C)[C@@](C)(CCC(=O)O)[C@H](C(=C)C)C=C3)C(C)C` [6,7-DEHYDROPORICOIC ACID H], the viability at 1000 molar ratio in series [1] is 70%. In addition, the IC50 in [2] is 193 molar ratio; in [7], more than 100 µM; in series [8] it was more than 100 µM. Also, the level, % of control turned out to be 56% in series [3], 15.2% in [4], 0% in [5] and 80.9% in series [6].
The compound `CC1=C(/C=C/C(C)=C/C=C/C(C)=C/C=C/C=C(C)/C=C/C=C(C)/C=C/C2=C(C)CCCC2(C)C)C(C)(C)CCC1` [BETA CAROTENE] displayed an IC50 in series [2] of 397 molar ratio. The level, % of control in series [3] worked out at 82.1%; in series [4] it was 34.2%; in [5], 8.6%; in series [6], 100%.
Take `C=C(CC[C@@H](C(=O)O)[C@H]1[C@H](O)C[C@@]2(C)C3=C(CC[C@]12C)[C@@]1(C)CCC(=O)C(C)(C)[C@@H]1CC3)C(C)(C)O`: in series [1], the viability at 1000 molar ratio is 70%. Moreover, the IC50 in [2] worked out at 299 molar ratio; in [7] it was 84.7 µM; in series [8], 28.7 µM. Moreover, the level, % of control in series [3] is 72.2%; in series [4] it was 36.1%; in [5], 0%; in [6], 96.1%.
As for `CC(C)(O)c1ccc2c(c1)C(=O)C[C@H]1[C@](C)(C(=O)O)CCC[C@]21C`, in series [1], the viability at 1000 molar ratio worked out at 60%. The figures for the IC50 in series [2], in [7] and in series [8] were 238 molar ratio, more than 100 µM and more than 100 µM, respectively. Moreover, the level, % of control is 69.1% in [3], 19.5% in [4], 0% in series [5] and 93.4% in [6].
Take `C=C(CC[C@@H](C(=O)O)[C@H]1[C@H](O)C[C@@]2(C)C3=C(CC[C@]12C)[C@@](C)(CCC(=O)OC)[C@H](C(=C)C)CC3)C(C)C` [PORICOIC ACID HM]: the viability at 1000 molar ratio in [1] came out at 70%. Moreover, the IC50 in series [2] came to 219 molar ratio. In addition, the level, % of control in [3] worked out at 61.3%; in series [4] it was 20.3%; in series [5], 0%; in series [6], 87.5%.
Take `C=C(CC[C@@H](C(=O)O)[C@H]1[C@H](O)C[C@@]2(C)C3=CC[C@@H](C(=C)C)[C@](C)(CCC(=O)O)C3=CC[C@]12C)C(C)C` [PORICOIC ACID A]: the values for the IC50 in series [7] and in [8] were 38 µM and more than 100 µM, respectively.
As for `C=C(CC[C@@H](C(=O)O)[C@H]1[C@H](O)C[C@@]2(C)C3=C(CC[C@]12C)[C@@]1(C)CCC(=O)C(C)(C)[C@@H]1CC3)C(C)C`, the viability at 1000 molar ratio in [1] was 70%. In addition, the IC50 in series [2] is 348 molar ratio; in [7], more than 100 µM; in series [8] it was more than 100 µM. The level, % of control was determined as 70.3% in series [3], 28.3% in series [4], 2.2% in series [5] and 96.4% in series [6].
Regarding `C=C(CC[C@@H](C(=O)O)[C@H]1[C@H](O)C[C@@]2(C)C3=CC[C@@H](C(=C)C)[C@](C)(CCC(=O)OC)C3=CC[C@]12C)C(C)C` [PORICOIC ACID AM], the IC50 in [7] was found to be 15.9 µM; in series [8], 88.9 µM.
Turning to `C=C(C)[C@@H]1CC=C2C(=CC[C@]3(C)[C@@H]([C@@H](CCC(=C)C(C)(C)OC)C(=O)O)[C@H](O)C[C@@]23C)[C@@]1(C)CCC(=O)O` [25-METHOXYPORICOIC ACID A], the entries for the “inhibition (INH)” value in series [9] and in series [10] were 80% and 20%, respectively. In addition, the viability at 1000 molar ratio in [1] is 70%. Besides, the IC50 was 268 molar ratio in series [2], more than 100 µM in [7] and more than 100 µM in [8]. Moreover, the level, % of control turned out to be 58.2% in [3], 17.8% in series [4], 0% in series [5] and 84.4% in series [6].
Consider `C=C(C)[C@@H]1CC=C2C(=CC[C@]3(C)[C@@H]([C@@H](CCC(=C)C(C)(C)O)C(=O)O)[C@H](O)C[C@@]23C)[C@@]1(C)CCC(=O)OC` [PORICOIC ACID DM], for which the IC50 in series [7] and in [8] was more than 100 µM in each case.
Consider `C=C(C)[C@@H]1CC=C2C(=CC[C@]3(C)[C@@H]([C@@H](CCC(=C)C(C)(O)CO)C(=O)O)[C@H](O)C[C@@]23C)[C@@]1(C)CCC(=O)OC` (stereo partly specified), for which the viability at 1000 molar ratio in series [1] worked out at 70%. Also, the IC50 in series [2] is 187 molar ratio; in series [7], 94.6 µM; in [8] it was 98.4 µM. Further, the level, % of control in series [3] is 55.3%; in series [4], 14.1%; in series [5], 0%; in series [6] it was 80.2%.
Take `C=C(C)[C@@H]1CC=C2C(=CC[C@]3(C)[C@@H]([C@@H](CCC(=C)C(C)(C)O)C(=O)O)CC[C@@]23C)[C@@]1(C)CCC(=O)O` [25-HYDROXYPORICOIC ACID C]: the viability at 1000 molar ratio in series [1] is 70%. The values for the IC50 in [2], in series [7] and in [8] were 201 molar ratio, 30.8 µM and 92.7 µM, respectively. For the same compound, the level, % of control in [3] turned out to be 57.1%; in [4], 16.2%; in series [5], 0%; in series [6] it was 83.1%.
With `C=C(CC[C@@H](C(=O)O)[C@H]1[C@H](O)C[C@@]2(C)C3=C(CC[C@]12C)[C@@](C)(CCC(=O)O)[C@H](C(=C)C)CC3)C(C)C` [PORICOIC ACID H], the results for the IC50 in series [7] and in [8] were 28.4 µM and more than 100 µM, respectively.
The matching figures for `C=C(CC[C@@H](C(=O)O)[C@H]1[C@H](O)C[C@@]2(C)C3=CC[C@H]4C(C)(C)[C@H](O)CC[C@]4(C)C3=CC[C@]12C)C(C)(C)O`: 29.4 µM and 84 µM.
The matching figures for `C=C(C)[C@@H]1CC=C2C(=CC[C@]3(C)[C@@H]([C@@H](CCC=C(C)C)C(=O)O)[C@H](O)C[C@@]23C)[C@@]1(C)CCC(=O)O` [PORICOIC ACID B]: more than 100 µM and more than 100 µM.
